{"source": "paper PMC5654471", "about": "(Bioorganic & medicinal chemistry letters, 2016)", "key": {"[1]": {"test_system": "MOLM-14 cells", "test": "Double strand DNA breaks, γ-H2Ax immunofluorescence", "type": "cell-based", "settings": "24 hours exposure, 200 nM, 1.0 and 2.0 µM"}, "[2]": {"test_system": "THP-1 cells", "test": "ROS production", "type": "cell-based", "settings": "approximately 2 hours post-treatment"}, "[3]": {"test_system": "MOLM-14 cells", "test": "ROS production", "type": "cell-based", "settings": "approximately 2 hours post-treatment"}, "[4]": {"test_system": "female NSG mice", "test": "Safety and tolerability in NSG mice", "type": "in vivo"}}, "data": [{"smiles": "O=C1C(C2=C(N3CC3)C(=O)c3ccccc3C2=O)=C(N2CC2)C(=O)c2ccccc21", "note": "[Compound 3, 3,3'-Di(aziridin-1-yl)-[2,2'-binaphthalene]-1,1',4,4'-tetraone]", "values": [{"measurement": "γ-H2Ax phosphorylation (double strand DNA breaks)", "setting": "[1]", "value": "substantial γ-H2Ax phosphorylation"}, {"measurement": "ROS production (RFU)", "setting": "[2]", "value": "dose-dependent increase in ROS production"}, {"measurement": "ROS production (RFU)", "setting": "[3]", "value": "dose-dependent increase in ROS production"}, {"measurement": "tolerability", "setting": "[4]; 5, 10 and 15 mg/kg IP for 5 consecutive days, one week observation", "value": "tolerated the compound well"}, {"measurement": "mean body weight loss", "setting": "[4]; mouse, in vivo, ip", "value": "≤ 10", "unit": "%"}]}]}
